In general, IC50 refers to the point on the concentration scale where inhibition reaches its midpoint.

In the first assay the target is T1, human farnesyl transferase (Homo sapiens, UniProt P49354+P49356).
T1 construct: human farnesyl transferase purified from THP1 cell cultures; endogenous in cells; host or cells: THP1 cell cultures (enzyme purified from the cells)
Kind of assay: inhibition of farnesyl transferase ((3H) farnesyl transfer from (3H) FPP to p21 H-ras). Type of assay: biochemical.
Conditions: not given
The protocol: Farnesyl transferase activity is determined by the amount of (^3 H) farnesyl transferred from (^3 H) farnesylpyrophosphate [(^3 H) FPP] to the p21 H-ras protein. The standard reaction mixture is composed, for a final volume of […], of 50 mM Tris-HCl, 5 mM MgCl2, 5 mM dithiotreitol, 0.2% octyl b-D-glucopyranoside, 200 picomol p21 H-ras, 4.5 picomol (^3 H) FPP (activity 61000 dpm/picomol).
Reaction is initiated by adding approximately 5 ng of human farnesyl transferase purified from THP1 cell cultures. After incubation for 20 minutes at 37° C. in a microtitration plate containing 96 1-cm^3 wells per plate (Titer Plate®, Beckman), the reaction is stopped by adding 0.4 cm^3 of 0.1% SDS in methanol at 0° C. The mixture is then treated with 0.4 cm^3 of 30% trichloroacetic® acid (TCA) in methanol. The plates are left in ice for 1 hour. The precipitated contents are then retained on Filtermat®, Pharmacia), glass® fibre membranes with the filtration unit (Combi Cell Harvester®, Skatron), and rinsed with 6% trichloroacetic acid in distilled water. The membranes are dried in a microwave oven, then impregnated with scintillation medium by melting of Meltilex® (Pharmacia) under hot air, and lastly counted in cpm in a b-Plate counter® (LKB). Each test is repeated 3 times.
The unit of activity is defined as 1 picomole of (^3 H) FPP transferred to p21 H-ras in 20 minutes.
The percentage inhibition values are obtained by comparison of the tests with and without inhibitor after deduction of blanks, the IC50 values being measured on the basis of the inhibitions obtained with 9 different concentrations using Enzfitter® or Grafit® software.
Consider `CSc1ccccc1CC(=O)N1C[C@H]2[C@@]3(c4ccccc4)CC[C@H](c4ccccc43)[C@@]2(C(=O)O)C1` (relative stereo) [Example 30], for which the IC50 was determined as 600 nM.

On to `C=C(C(=O)N1C[C@@H]2[C@]3(c4ccccc4)CC[C@@H](c4ccccc43)[C@]2(C(=O)O)C1)c1ccccc1OC` (relative stereo) [Example 38, (3aRS,4SR,9SR,9aRS)-4,9-ethano-2-[2-(2-methoxyphenyl)prop-2-en-1-oyl]-9-phenyl-2,3,3a,4,9,9a-hexahydro-1H-benzo[f]isoindole-3a-carboxylic acid], for which it took 100 nM to reach half-maximal inhibition (IC50).

Turning to `COc1ccccc1CC(=O)N1C[C@@H]2[C@]3(c4ccccc4)CC[C@@H](c4ccc(I)cc43)[C@]2(C(=O)O)C1` (relative stereo) [Example 43, (3aRS,4SR,9SR,9aRS)-4,9-ethano-7-iodo-2-(2-methoxyphenyl)acetyl-9-phenyl-2,3,3a,4,9,9a-hexahydro-1H-benzo[f]isoindole-3a-carboxylic acid], the midpoint of inhibition, the IC50, lay at 700 nM.

Take `CCOc1ccccc1CC(=O)N1C[C@H]2[C@@]3(c4ccccc4)CC[C@H](c4ccccc43)[C@@]2(C(=O)O)C1` (relative stereo) [Example 74, (3aRS,4SR,9SR,9aRS)-4,9-ethano-2-(2-ethoxyphenyl)acetyl-9-phenyl-2,3,3a,4,9,9a-hexahydro-1H-benzo[f]isoindole-3a-carboxylic acid]: 190 nM corresponded to half-maximal inhibition (IC50).

`COc1ccccc1CC(=S)N1C[C@@H]2[C@]3(c4ccccc4)CC[C@@H](c4ccccc43)[C@]2(C(=O)O)C1` (relative stereo) [Example 65, (3aRS,4SR,9SR,9aRS)-4,9-Ethano-2-(2-methoxyphenyl)thioacetyl-9-phenyl-2,3,3a,4,9,9a-hexahydro-1H-benzo[f]isoindole-3a-carboxylic acid] showed an IC50 of 410 nM.

On to `COc1ccccc1OC(=O)N1C[C@H]2[C@@]3(c4ccccc4)CC[C@H](c4ccccc43)[C@@]2(C(=O)O)C1` (relative stereo) [Example 27, (3aRS, 4SR, 9SR, 9aRS)-4,9-ethano-2-(2-methoxyphenyl)oxycarbonyl-9-phenyl-1,2,3,3a,9,9a-hexahydro-1H-benzo[f]isoindole-3a-carboxylic acid], for which 5800 nM corresponded to half-maximal inhibition (IC50).

The compound `O=C(Cc1ccccc1O)N1C[C@@H]2[C@]3(c4ccccc4)CC[C@@H](c4ccccc43)[C@]2(C(=O)O)C1` (relative stereo) [Example 60, (3aRS,4SR,9SR,9aRS)-4,9-Ethano-2-(2-hydroxyphenyl)acetyl-9-phenyl-2,3,3a,4,9,9a-hexahydro-1H-benzo[f]isoindole-3a-carboxylic acid] came in with an IC50 of 1800 nM.

On to `COc1ccccc1CCC(=O)N1C[C@@H]2[C@]3(c4ccccc4)CC[C@@H](c4ccccc43)[C@]2(C(=O)O)C1` (relative stereo) [Example 59, (3aRS,4SR,9SR,9aRS)-4,9-Ethano-2-(2-methoxyphenyl)propionyl-9-phenyl-2,3,3a,4,9,9a-hexahydro-1H-benzo[f]isoindole-3a-carboxylic acid], for which the IC50 turned out to be 5000 nM.

The same assay, now with this note: human farnesyl transferase purified from THP1 cell cultures; p21 H-ras substrate; 20 minutes at 37° C.; 9 concentrations; read-out: in vitro inhibitory activity IC50.
For the compound `COc1ccc(CSSCc2ccc(OC)c(CC(=O)N3CC4C5(c6ccccc6)CCC(c6ccccc65)C4(C(=O)O)C3)c2)cc1CC(=O)N1CC2C3(c4ccccc4)CCC(c4ccccc43)C2(C(=O)O)C1` (racemic) [Example 37, disulphide of (3aRS, 4SR, 9SR, 9aRS)-4,9-ethano-2-(2-methoxy-5-(mercaptomethyl)-phenyl)acetyl-9-phenyl-2,3,3a,4,9,9a-hexahydro-1H-benzo[f]isoindole-3a-carboxylic acid], the IC50 is 7400 nM.

With `C=C(C(=O)N1C[C@H]2[C@@]3(c4ccccc4)CC[C@H](c4ccccc43)[C@@]2(C(=O)NCc2cccnc2)C1)c1ccccc1OC` [Example 91, (3aS,4R,9R,9aS)-N-[(3-pyridyl)methyl]-4,9-ethano-2-[(2-methoxyphenyl)prop-2-en-1-oyl]-9-phenyl-2,3,3a,4,9,9a-hexahydro-1H-benzo[f]isoindole-3a-carboxamide], the IC50 stood at 160 nM.

Take `CNC(=O)[C@@]12CN(C(=O)Cc3ccccc3OC)C[C@@H]1[C@]1(c3ccccc3)CC[C@H]2c2ccccc21` (relative stereo) [Example 54, (3aRS,4SR,9SR,9aRS)-N-methyl-4,9-ethano-2-(2-methoxyphenyl)acetyl-9-phenyl-2,3,3a,4,9,9a-hexahydro-1H-benzo[f]isoindole-3a-carboxamide]: the IC50 was 4700 nM.

Regarding `COc1ccccc1CC(=O)N1CC2C3(c4ccccc4)CCC(c4ccccc43)C2(C(=O)N[C@@H](CSCc2ccccc2)C(=O)O)C1` (stereo partly drawn) [Example 52, N-[(3aRS,4SR,9SR,9aRS)-4,9-ethano-2-(2-methoxyphenyl)acetyl-9-phenyl-2,3,3a,4,9,9a-hexahydro-1H-benzo[f]isoindol-3a-yl]carbonyl-S-benzyl-L-cysteine], the concentration for half-maximal inhibition (IC50) turned out to be 440 nM.

In the case of `COc1ccccc1CC(=O)N1C[C@H]2[C@@]3(c4ccccc4)CC[C@H](c4ccccc43)[C@@]2(CP(=O)(O)O)C1` (relative stereo) [Example 23], the IC50 was found to be 2600 nM.

In the case of `COc1cccc(CC(=O)N2C[C@@H]3[C@]4(c5ccccc5)CC[C@@H](c5ccccc54)[C@]3(C(=O)O)C2)c1OC` (relative stereo) [Example 36, (3aRS, 4SR, 9SR, 9aRS)-4,9-ethano-2-(2,3-dimethoxyphenyl)acetyl-9-phenyl-2,3,3a,4,9,9a-hexahydro-1H-benzo[f]isoindole-3a-carboxylic acid], the IC50 was 3700 nM.

`COc1ccccc1CC(=O)N1CC2C3(c4ccccc4)CCC(c4ccccc43)C2(C(=O)N[C@@H](CCSC)C(=O)O)C1` (stereo partly drawn) [Example 51, N-[(3aRS,4SR,9SR,9aRS)-4,9-ethano-2-(2-methoxy-phenyl)acetyl-9-phenyl-2,3,3a,4,9,9a-hexahydro-1H-benzo[f]isoindol-3a-yl]carbonyl-L-methionine]: the IC50 came out at 150 nM.

Take `COc1ccccc1CC(=O)N1C[C@H]2[C@@]3(c4ccccc4)CC[C@H](c4ccccc43)[C@@]2(C(N)=O)C1` (relative stereo) [Example 3, (3aRS, 4SR, 9SR, 9aRS)-4,9-ethano-2-(2-methoxyphenyl)acetyl-9-phenyl-2,3,3a,4,9,9a-hexahydro-1H-benzo[f]isoindole-3a-carboxamide]: the IC50 amounted to 4700 nM.

On to `COc1ccccc1CC(=O)N1C[C@H]2[C@@]3(c4ccccc4)CC[C@H](c4ccccc43)[C@@]2(NC(=O)CN)C1` (relative stereo) [Example 12, (3aRS, 4SR, 9SR, 9aRS)-3a-glycylamino-4,9-ethano-2-(2-methoxyphenyl)acetyl-9-phenyl-2,3,3a,4,9,9a-hexahydro-1H-benzo[f]isoindole], for which the half-maximal inhibitory concentration (IC50) is 7500 nM.

Regarding `COc1ccccc1CC(=O)N1C[C@H]2[C@@]3(c4ccccc4)CC[C@H](c4ccccc43)[C@@]2(NC(=O)C(CO)NC(=O)OC(C)(C)C)C1` (stereo partly drawn) [Example 14], the IC50 came to 8700 nM.

As to `COc1ccccc1CC(=O)N1C[C@H]2[C@@]3(c4ccccc4)CC[C@H](c4ccccc43)[C@@]2(NC(=O)C(N)CCSC)C1` (stereo partly drawn) [Example 13, (3aRS, 4SR, 9SR, 9aRS)-3a-methionylamino-4,9-ethano-2-(2-methoxyphenyl)acetyl-9-phenyl-2,3,3a,4,9,9a-hexahydro-1H-benzo[f]isoindole], the IC50 is 8800 nM.

Regarding `CCCOc1ccccc1CC(=O)N1C[C@H]2[C@@]3(c4ccccc4)CC[C@H](c4ccccc43)[C@@]2(C(=O)O)C1` (relative stereo) [Example 80, (3aRS,4SR,9SR,9aRS)-4,9-ethano-9-phenyl-2-(2-n-propoxyphenyl)acetyl-2,3,3a,4,9,9a-hexahydro-1H-benzo[f]isoindole-3a-carboxylic acid], the IC50 stood at 800 nM.

With `COc1ccccc1CC(=O)N1C[C@H]2[C@@]3(c4ccccc4)CC[C@H](c4ccccc43)[C@@]2(NC(=O)CC(=O)O)C1` (relative stereo) [Example 16, (3aRS, 4SR, 9SR, 9aRS)-4,9-ethano-3a-carboxylacetylamino-2-(2-methoxyphenyl)acetyl-9-phenyl-2,3,3a,4,9,9a-hexahydro-1H-benzo[f]isoindole], the IC50 stood at 3030 nM.

Regarding `C=C(C(=O)N1CC2C3(c4ccccc4)CCC(c4ccccc43)C2(C(=O)N[C@H](C)c2ccccc2)C1)c1ccccc1OC` (single isomer, unassigned) [Example 9], the IC50 was determined as 190 nM.

For the compound `CONC(=O)[C@@]12CN(C(=O)Cc3ccccc3OC)C[C@@H]1[C@]1(c3ccccc3)CC[C@H]2c2ccccc21` (relative stereo) [Example 56, (3aRS,4SR,9SR,9aRS)-N-methoxy-4,9-ethano-2-(2-methoxyphenyl)acetyl-9-phenyl-2,3,3a,4,9,9a-hexahydro-1H-benzo[f]isoindole-3a-carboxamide], the IC50 turned out to be 8400 nM.

Turning to `C=C(C(=O)N1C[C@H]2[C@@]3(c4ccccc4)CC[C@H](c4ccccc43)[C@@]2(C(=O)NCc2ccccc2)C1)c1ccccc1OC` [Example 71], the half-inhibitory concentration (IC50) worked out at 500 nM.
